Measured values reported in patent publication US20080274121A1, “Inhibition of Angiogenesis by Mithramycin” (priority 2007, published 2008).
“Also recorded” adds a separate entry of the source.

Experiments:
[1] = system: BxPC3 cells; experiment: BxPC3 subcutaneous xenograft, tumor volume and body weight; format: in vivo, nude mice
Source text: FIG. 10. Dose-dependent antitumor effects of BVZ and MIT in xenograft models of human pancreatic cancer. […] C and D, the control mice and mice that received (C) BVZ and (D) MIT were weighed at the time of experiment termination, and the weights were expressed as the mean±SD.
FIG. 11. Synergistic antitumor effects of treatment with BVZ and MIT in xenograft models of human pancreatic cancer. […] C, representative tumor sizes in each group of BxPC3 model mice.
To determine whether this takes place, we treated pancreatic cancer in nude mice with BVZ, MIT, or a combination of the two (B+M). Specifically, we first performed dose-response experiments. We injected BxPC3 cells subcutaneously into nude mice.
Next, we performed experiments using both BxPC3 and PANC-1 tumor cell models in which we administered PBS, BVZ (25 μg), MIT (0.10 mg/kg), or B+M to a group of nude mice.

[2] = system: Sp1, VEGF, CD31 (MVD); experiment: Gene expression and microvessel formation in PANC-1 tumor tissues; format: in vivo, nude mice
Method: FIG. 13. Analysis of gene expression and microvessel formation in tumor tissues. The tumor tissues described in FIG. 2 were collected and processed as described in Materials and Methods. A, total protein lysates were harvested from tumor tissues, and the level of protein expression was determined using Western blot analysis. Equal protein-sample loading was monitored by probing the same membrane filter with an anti-β-actin antibody. NS, nonspecific. B, the levels of Sp1 and VEGF expression were quantitated and expressed as fold change. C, MVD was quantitated according to CD31 staining. D, immunohistochemical staining was performed using specific antibodies against Sp1, VEGF, and CD31. Representative photos of the stains are shown.
Western blot analysis. Whole-cell lysates were prepared from human pancreatic cancer cell lines and tissues (23). Standard Western blotting was performed using polyclonal rabbit antibodies against human and mouse Sp1, VEGF, and EGFR (Santa Cruz Biotechnology, Santa Cruz, Calif.) and the anti-rabbit IgG antibody, a horseradish peroxidase-linked F(ab′)2 fragment obtained from a donkey (Amersham, Arlington Heights, Ill.). Equal protein-sample loading was monitored by probing the same membrane filter with antibodies against anti-β-actin or glyceraldehyde-3-phosphate dehydrogenase (GAPDH) (23). The probe proteins were detected using the Amersham enhanced chemiluminescence system according to the manufacturer's instructions.
Immunohistochemical analysis and quantification of tumor MVD. For CD31 staining, frozen tissue sections (5 μm thick) were fixed in acetone. Endogenous peroxidase in the specimens was blocked using 3% hydrogen peroxide in phosphate-buffered saline (PBS) for 12 minutes. […] For quantification of tumor MVD, vessels on each section were counted in five high-power fields (magnification, ×200 [×20 objective and ×10 ocular]) as described previously (41). […]

[3] = system: H727 cells; experiment: Viable cell count in vitro, H727; format: cell-based, human; settings: 0 to 100 μg/ml BVZ, 5 days
Method: FIG. 18. Effects of treatment with BVZ and MIT on the growth of and gene expression in human carcinoid cells in vitro. A. H727 and BON-1 cells were incubated for 5 days in a medium alone or a medium containing 25 to 100 μg/ml BVZ. The viable cells were counted. B. H727 cells were incubated for 5 days in a medium alone or a medium containing 100 μg/ml BVZ. Total protein lysates were harvested from the cell cultures, and the level of Sp1 and VEGF protein expression was determined using Western blot analysis. Equal protein-sample loading was monitored by probing the same membrane filter with an anti-GAPDH. C. H727 and BON-1 cells were treated with MIT at concentrations ranging from 0.1 to 2.5 μM for 24 hours. Cytotoxicity was assessed using the MTT assay.
Effects of treatment with BVZ and MIT on the growth of and gene expression in human LGNET cells. To further determine whether treatment with BVZ directly impacts gene expression in LGNET cells, we incubated H727 and BON-1 cells in a medium alone or a medium containing 0 to 100 μg/ml BVZ for 5 days.

[4] = system: BON-1 cells; experiment: BON-1 carcinoid subcutaneous xenograft
Method: H727 and BON-1 cells were injected into the subcutis of nude mice (n=5). When tumors reached around 4 mm in diameter, the animals received different doses of MIT (0.10 [M-10], 0.20 [M-20], and 0.40 [M-40] mg/kg) via intraperitoneal injection twice a week. Tumors were measured once every week, and at each measurement, the mean±standard deviation (SD) tumor volume in the five mice in each group was calculated (A).
H727 and BON-1 cells were injected subcutaneously into nude mice. […] A. Tumors were measured once every week, and at each measurement, the mean±SD tumor volume in the five mice in each group was calculated. B. Mouse body weights were measured. The asterisks indicate the statistical significance (P<0.01) in a comparison between the treated and respective control groups.
Mithramycin-A (MIT, 1 mg/vial crystal powder; lot 055K4011) was purchased from Sigma Chemical Co. (St. Louis, Mo.) and diluted in sterile water. BVZ (25 mg/ml; NDC 50242-060-01) from Genentech, Inc. (South San Francisco, Calif.) was purchased. For animal experiments, MIT (0.1 to 0.4 mg/kg body weight) and BVZ (25 to 100 μg/mouse) were administered by intraperitoneal or subcutaneous injections twice a week or as otherwise stated.
Female athymic BALB/c nude mice were purchased from The Jackson Laboratory (Bar Harbor, Me.). The mice were housed in laminar flow cabinets under specific pathogen-free conditions and used when they were 8 weeks old.
H727 and BON-1 tumor cells were injected into the subcutis of mice as described in the Materials and Methods. […] Moreover, the residual tumors were harvested and angiogenesis was assessed by CD31 staining.
Synergistic antitumor effects of BVZ and MIT in human LGNET model. […] To test this hypothesis, we determined whether modulating Sp1 expression and/or activity impacts the efficacy of anti-angiogenic treatment of BVZ. […]
H727 and BON-1 cells were injected subcutaneously into nude mice and then administered treatment to them as described in FIG. 20. We monitored animal survival daily until termination of the experiment 160 days after tumor-cell injection.

With bevacizumab [BVZ] the “antitumor activity at low dose” value ([1]; BVZ 25 μg, MIT 0.10 mg/kg, or B+M) was “slight antitumor effects; also recorded: marginal antitumor activity”, the “antitumor activity, dose-response” value ([1]; BVZ 25, 50, 100 μg, MIT 0.1, 0.2, 0.4 mg/kg, i.p. twice a week) was “suppressed human pancreatic cancer growth” and the body weight ([1]; BVZ alone, 25-100 μg) was “no discernable effect on body weight”. The MVD ([2]; CD31 staining, low-dose BVZ or MIT alone) was “did not significantly reduce MVD”, the “expression of platelet-derived growth factor, IGF-R, and EGFR in tumor tissue” value ([2]; Western blot, data not shown) was “upregulated the expression of other proangiogenic molecules” and the “Sp1 and VEGF expression in tumor tissue” value ([2]; Western blot, mice treated with PBS, BVZ, MIT, or B+M (low doses)) was “increased expression of Sp1 and its downstream molecule VEGF”. The “cell growth in vitro” value [3] was “did not affect the growth”, the “antitumor activity at low dose” value ([4]; BVZ 25 μg, MIT 0.10 mg/kg, alone or combined, i.p. twice a week) was “marginal antitumor activity” and the body weight ([4]; BVZ alone) was “no discernable effects on body weight”. The animal survival ([4]; compared with PBS, 160 days) was “slightly increased survival rate”.
